# Source: patent US20240351988A1, “ARYL HYDROCARBON RECEPTOR MODULATORS AND THEIR USE IN THE TREATMENT OF DISEASES AND DISORDERS” (Allianthera (Suzhou) Biopharmaceutical Co., Ltd., priority 2021, published 2024)
# Tests used:
# [1] = target: T1, Human Aryl Hydrocarbon Receptor (AhR) (Homo sapiens, UniProt P35869); assay: AHR antagonist reporter assay in human cell line (INDIGO AhR Reporter Assay System, kynurenic acid activated); format: cell-based; conditions: 200 μM kynurenic acid, 24 hours, luciferase; read-out: AhR Reporter Assay KA Antagonist Mode: IC50
# T1 construct: purchased INDIGO Bioscience #1B06001-32; host or cells: AhR Reporter Cell (kit's proprietary reporter cells)
# T1 sequence (P35869 11-848): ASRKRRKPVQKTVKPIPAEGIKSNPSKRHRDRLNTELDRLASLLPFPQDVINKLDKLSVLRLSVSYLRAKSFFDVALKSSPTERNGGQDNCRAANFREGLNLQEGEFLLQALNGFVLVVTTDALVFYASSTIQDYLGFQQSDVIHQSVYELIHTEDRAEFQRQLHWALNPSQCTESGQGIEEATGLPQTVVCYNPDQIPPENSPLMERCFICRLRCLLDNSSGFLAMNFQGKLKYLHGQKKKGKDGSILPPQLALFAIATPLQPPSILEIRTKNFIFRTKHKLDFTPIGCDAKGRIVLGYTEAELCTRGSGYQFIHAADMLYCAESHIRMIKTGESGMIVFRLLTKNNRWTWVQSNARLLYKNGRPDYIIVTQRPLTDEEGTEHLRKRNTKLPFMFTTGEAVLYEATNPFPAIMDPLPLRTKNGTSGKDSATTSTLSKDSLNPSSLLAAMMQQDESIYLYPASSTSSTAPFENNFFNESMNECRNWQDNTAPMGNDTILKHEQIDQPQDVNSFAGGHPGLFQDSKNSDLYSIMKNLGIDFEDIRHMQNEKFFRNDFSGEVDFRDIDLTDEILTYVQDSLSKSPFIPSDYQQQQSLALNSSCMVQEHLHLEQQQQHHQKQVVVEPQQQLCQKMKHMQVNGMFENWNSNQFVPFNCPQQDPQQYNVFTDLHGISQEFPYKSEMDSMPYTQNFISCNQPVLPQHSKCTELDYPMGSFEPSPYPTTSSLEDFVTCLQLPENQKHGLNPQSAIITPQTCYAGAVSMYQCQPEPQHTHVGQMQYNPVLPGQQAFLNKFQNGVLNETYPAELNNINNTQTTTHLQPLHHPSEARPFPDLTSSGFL
# Procedure: The AhR reporter assay was performed following the protocol of the Human Aryl Hydrocarbon Receptor (AhR) Reporter Assay System (INDIGO Bioscience, #1B06001-32). AhR Reporter Cell was thawed and pre-incubated in Cell Recovery Medium (CRM) for 6 hours. The media was then removed and the cells were incubated with Compound Screening Medium (CSM) supplemented with 200 μM kynurenic acid for 24 hours in the absence (negative control) or presence of increasing concentrations of test compounds (typical dilution: […], 3.2 nM, 16 nM, 80 nM, 400 nM, 2 μM, 10 μM in duplicates). For positive inhibition control, cells activated with 200 μM kynurenic acid were incubated in the presence of literature AHR antagonists; alternatively un-activated cells were used as positive inhibition control. Following 24 hours incubation, the media was removed and Luciferase Detection Reagent (LDR) added. The firefly luciferase activity was quantified using a plate reader. Results were normalized by positive and negative controls.
# [2] = tested on: AHR-regulated gene CYP1A1 in human monocytic U937 cell line; assay: AHR-regulated CYP1A1 expression in U937 cells (qPCR, kynurenic acid stimulated); format: cell-based; conditions: U-937, 200 μM KA, 16 hours, CYP1A1 vs GAPDH, read-out: Cyp ANATAG mode assay: IC50
# Procedure: To evaluate the AHR inhibitory activity of the test compounds, quantitative PCR analysis was used to determine expression level of the AHR-regulated gene CYP1A1 in a human monocytic U937 cell line upon stimulation of 200 μM kynurenic acid (KA) in the absence or presence of AHR inhibitor. U937 cells were seeded at a concentration of 5×10^5 cells/well in 200 μL of growth medium in 96-well cell culture microplates. CYP1A1 expression was induced with 200 μM KA (positive control) in the absence or presence of the test compounds for 16 hours. Human U937 cells were typically incubated with eight different concentrations of test compounds (typical dilution: […], 3.2 nM, 16 nM, 80 nM, 400 nM, 2 μM, 10 μM) and analyzed in duplicate on the same cell culture microplate. After stimulation, the media was removed, the cell RNA was isolated using RNeasy Mini Kit (Qiagen, 74104) and reverse-transcribed to cDNA using PrimeScript RT reagent Kit (Perfect Real Time) (TaKaRa, RR037A). Unstimulated cells were used as the negative control. Taqman probes for human CYP1A1 (Hs01054797_g1) and human GAPDH (Hs02786624_g1) were used to analyze fold expression of CYP1A1 of GAPDH.
Structure (SMILES),IC50 [1],IC50 [2]
O=C(N[C@H]1CCCCNC1=O)c1cc(-c2ccc(Cl)cc2)nn(-c2cccc(F)c2)c1=O [28 - *stereo-pure],< 100 nM,< 100 nM
Cn1cc(-n2nc(-c3ccc(Cl)cc3)cc(C(=O)N[C@H]3CCCCNC3=O)c2=O)cn1 [59 - *stereo-pure],< 100 nM,< 100 nM
CNC(=O)C(C)NC(=O)c1cc(-c2ccc(Cl)cc2)nn(-c2cccc(F)c2)c1=O (stereo not drawn) [Compound 12],100 to 400 nM,100 to 400 nM
CC(NC(=O)c1cc(-c2ccc(Cl)cc2)nn(-c2cccc(F)c2)c1=O)C(=O)N(C)C (stereo not drawn) [Compound 13],< 100 nM,100 to 400 nM
COCC(C)NC(=O)c1cc(-c2ccc(Cl)cc2)nn(-c2cnn(C)c2)c1=O (stereo not drawn) [Compound 32],< 100 nM,< 100 nM
COC[C@H](C)NC(=O)c1cc(-c2ccc(Cl)cc2)nn(-c2cn[nH]c2)c1=O [Compound 62],100 to 400 nM,< 100 nM
COC[C@H](C)NC(=O)c1cc(-c2ccc(C(F)(F)F)cc2)nn(-c2cnn(C)c2)c1=O [Compound 70],< 100 nM,< 100 nM
COC[C@H](C)NC(=O)c1cc(-c2ccc(C(=O)N(C)C)cc2)nn(-c2cnn(C)c2)c1=O [Compound 90],< 100 nM,< 100 nM
CN(C)C(=O)C(C)(C)NC(=O)c1cc(-c2ccc(Cl)cc2)nn(-c2cnn(C)c2)c1=O [Compound 94],< 100 nM,< 100 nM
CNC(=O)C(C)(C)NC(=O)c1cc(-c2ccc(Cl)cc2)nn(-c2cnn(C)c2)c1=O [Compound 95],< 100 nM,< 100 nM
COC[C@H](C)NC(=O)c1cc(-c2ccc(Cl)cc2)nn(-c2cccc(F)c2)c1=O [Compound 97],< 100 nM,< 100 nM
CNC(=O)[C@H](C)NC(=O)c1cc(-c2ccc(Cl)cc2)nn(-c2cccc(F)c2)c1=O [Compound 98],< 100 nM,< 100 nM
C[C@H](NC(=O)c1cc(-c2ccc(Cl)cc2)nn(-c2cccc(F)c2)c1=O)C(=O)N(C)C [Compound 99],< 100 nM,< 100 nM
CNC(=O)[C@H](C)NC(=O)c1cc(-c2ccc(Cl)cc2)nn(-c2cnn(C)c2)c1=O [Compound 100],< 100 nM,< 100 nM
COC[C@H](C)NC(=O)c1cc(-c2ccc3c(c2)OCC3)nn(-c2cnn(C)c2)c1=O [Compound 112],< 100 nM,100 to 400 nM
COC[C@H](C)NC(=O)c1cc(-c2ccc3cc(OC)ccc3c2)nn(-c2cnn(C)c2)c1=O [Compound 113],< 100 nM,< 100 nM
COC[C@H](C)NC(=O)c1cc(-c2ccc3cc(F)ccc3c2)nn(-c2cnn(C)c2)c1=O [Compound 120],< 100 nM,< 100 nM
COC[C@H](C)NC(=O)c1cc(-c2ccc3c(C)nn(C)c3c2)nn(-c2cnn(C)c2)c1=O [Compound 123],< 100 nM,< 100 nM
COC[C@H](C)NC(=O)c1cc(-c2cnc(-c3ccc(Cl)cc3)nc2)nn(-c2cnn(C)c2)c1=O [Compound 139],< 100 nM,< 100 nM
C[C@H](NC(=O)c1cc(-c2ccc(OC(F)(F)F)cc2)nn(-c2cnn(C)c2)c1=O)C(=O)N(C)C [Compound 146],< 100 nM,< 100 nM
C[C@H](NC(=O)c1cc(-c2ccc(-c3ccc(Cl)cc3)cc2)nn(-c2cnn(C)c2)c1=O)C(=O)N(C)C [Compound 147],< 100 nM,< 100 nM

Structure (SMILES),IC50 [1],IC50 [2]
C[C@@H](CO)NC(=O)c1cc(-c2ccc(-c3ccc(Cl)cc3)cc2)nn(-c2cnn(C)c2)c1=O [Compound 148],< 100 nM,< 100 nM
C[C@H](NC(=O)c1cc(-c2ccc(C(F)(F)F)cc2)nn(-c2cnn(C)c2)c1=O)C(=O)N(C)C [Compound 150],< 100 nM,< 100 nM
COC[C@H](C)NC(=O)c1cc(-c2cc3ccccc3cn2)nn(-c2cnn(C)c2)c1=O [Compound 153],< 100 nM,< 100 nM
COC[C@H](C)NC(=O)c1cc(-n2cc(-c3ccc(Cl)cc3)cn2)nn(-c2cnn(C)c2)c1=O [Compound 155],< 100 nM,100 to 400 nM
COC[C@H](C)NC(=O)c1cc(-c2ccc(-c3ccc(Cl)cc3)nc2)nn(-c2cnn(C)c2)c1=O [Compound 156],< 100 nM,< 100 nM
C[C@@H](CO)NC(=O)c1cc(-c2ccc(-c3ccc(Cl)cc3)nc2)nn(-c2cnn(C)c2)c1=O [Compound 157],< 100 nM,< 100 nM
C[C@@H](CO)NC(=O)c1cc(-n2cc(-c3ccc(Cl)cc3)cn2)nn(-c2cnn(C)c2)c1=O [Compound 161],< 100 nM,< 100 nM
C[C@@H](CO)NC(=O)c1cc(-c2cnc(-c3ccc(Cl)cc3)nc2)nn(-c2cnn(C)c2)c1=O [Compound 163],< 100 nM,< 100 nM
CN1CCCC[C@H](NC(=O)c2cc(-c3ccc(C(F)(F)F)cc3)nn(-c3cnn(C)c3)c2=O)C1=O [Compound 164],< 100 nM,< 100 nM
CN1CCCC[C@H](NC(=O)c2cc(-c3ccc(OC(F)(F)F)cc3)nn(-c3cnn(C)c3)c2=O)C1=O [Compound 165],< 100 nM,< 100 nM
CN(C)C(=O)C(C)(C)NC(=O)c1cc(-c2ccc(C(F)(F)F)cc2)nn(-c2cnn(C)c2)c1=O [Compound 167],< 100 nM,< 100 nM
CN(C)C(=O)C(C)(C)NC(=O)c1cc(-c2ccc(OC(F)(F)F)cc2)nn(-c2cnn(C)c2)c1=O [Compound 168],< 100 nM,100 to 400 nM
CNC(=O)[C@H](C)NC(=O)c1cc(-c2ccc(C(F)(F)F)cc2)nn(-c2cnn(C)c2)c1=O [Compound 169],< 100 nM,< 100 nM
CNC(=O)[C@H](C)NC(=O)c1cc(-c2ccc(OC(F)(F)F)cc2)nn(-c2cnn(C)c2)c1=O [Compound 170],< 100 nM,< 100 nM
CNC(=O)[C@H](C)NC(=O)c1cc(-c2ccc(-c3ccc(Cl)cc3)cc2)nn(-c2cnn(C)c2)c1=O [Compound 171],< 100 nM,< 100 nM
CN1CCCC[C@H](NC(=O)c2cc(-c3ccc(C(F)(F)F)nc3)nn(-c3cnn(C)c3)c2=O)C1=O [Compound 172],< 100 nM,< 100 nM
CNC(=O)C(C)(C)NC(=O)c1cc(-c2ccc(C(F)(F)F)cc2)nn(-c2cnn(C)c2)c1=O [Compound 173],< 100 nM,< 100 nM
Cc1nn(C)c2cc(-c3cc(C(=O)N[C@@H](C)CO)c(=O)n(-c4cnn(C)c4)n3)ccc12 [Compound 175],< 100 nM,100 to 400 nM
Cc1nn(C)c2cc(-c3cc(C(=O)N[C@@H](C)C(=O)N(C)C)c(=O)n(-c4cnn(C)c4)n3)ccc12 [Compound 176],< 100 nM,100 to 400 nM
C[C@H](NC(=O)c1cc(-c2ccc(-c3ccc(Cl)cc3)nc2)nn(-c2cnn(C)c2)c1=O)C(=O)N(C)C [Compound 177],< 100 nM,< 100 nM
CNC(=O)[C@H](C)NC(=O)c1cc(-c2cnc(-c3ccc(Cl)cc3)nc2)nn(-c2cnn(C)c2)c1=O [Compound 181],< 100 nM,100 to 400 nM
